Measured values from PubChem BioAssay (NCI).
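96-well plates; 48 h exposure; 5 concentrations. Endpoints by linear interpolation between flanking doses. Not reached: highest tested concentration assigned. Abbreviation: GI50, concentration required for 50% inhibition of growth. TGI denotes the concentration required for complete inhibition of growth.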

Tests used:
Assay in all cases: inhibition of tumour cell growth, NCI panel, 48 h
[1] = system: SK-MEL-28 melanoma
[2] = system: MDA-MB-231 breast
[3] = system: OVCAR-4 ovarian
[4] = system: SK-MEL-5 melanoma
[5] = system: SF-539 CNS
[6] = system: 786-0 renal
[7] = system: HOP-92 NSCLC
[8] = system: CCRF-CEM leukemia
[9] = system: A498 renal
[10] = system: UACC-257 melanoma
[11] = system: U251 CNS
[12] = system: HCC-2998 colon
[13] = system: NCI-H23 lung
[14] = system: HCT-116 colon
[15] = system: HOP-62 NSCLC
[16] = system: COLO 205 colon
[17] = system: NCI-H460 lung
[18] = system: MOLT-4 leukemia
[19] = system: K-562 leukemia
[20] = system: SF-295 CNS
[21] = system: UO-31 renal
[22] = system: LOX IMVI melanoma
[23] = system: HCT-15 colon
[24] = system: SNB-75 CNS
[25] = system: IGROV1 ovarian
[26] = system: OVCAR-8 ovarian
[27] = system: A549 NSCLC
[28] = system: SK-OV-3 ovarian
[29] = system: NCI-H226 lung
[30] = system: HT29 colon
[31] = system: DU-145 prostate
[32] = system: EKVX NSCLC
[33] = system: KM12 colon
[34] = system: M14 melanoma
[35] = system: NCI-H522 lung
[36] = system: TK-10 renal
[37] = system: MCF7 breast
[38] = system: OVCAR-3 ovarian
[39] = system: UACC-62 melanoma
[40] = system: HS 578T breast
[41] = system: ACHN renal
[42] = system: OVCAR-5 ovarian
[43] = system: MDA-MB-435
[44] = system: CAKI-1 renal
[45] = system: SW-620 colon
[46] = system: NCI/ADR-RES ovarian
[47] = system: SN12C renal
[48] = system: BT-549 breast
[49] = system: T-47D breast
[50] = system: SF-268 CNS
[51] = system: HL-60(TB) leukemia
[52] = system: RXF 393 renal
[53] = system: PC-3 prostate
[54] = system: SNB-19 CNS
[55] = system: SK-MEL-2 melanoma
[56] = system: MALME-3M melanoma
[57] = system: RPMI-8226 leukemia

`CCN1CCN(C(=O)[C@]23CC[C@@H](C)[C@H](C)[C@@H]2C2=CC[C@@H]4[C@@]5(C)CCC(=O)C(C)(C)[C@@H]5CC[C@@]4(C)[C@]2(C)CC3)CC1` gave a GI50 [1] of 0.889 µM, a TGI [1] of 1.7 µM and a GI50 [2] of 0.779 µM. The TGI [2] was 1.5 µM, the GI50 [3] was 1.26 µM and the TGI [3] was 4.74 µM. For the same molecule, the GI50 [4] was 0.888 µM, the TGI [4] was 1.6 µM and the GI50 [5] was 0.843 µM. For the same molecule, the TGI [5] was 1.54 µM, the GI50 [6] was 0.814 µM and the TGI [6] was 1.7 µM. It also gave a GI50 [7] of 0.713 µM, a TGI [7] of 2.06 µM and a GI50 [8] of 0.976 µM. It also gave a TGI [8] of 2.74 µM, a GI50 [9] of 0.927 µM and a TGI [9] of 2.42 µM. It also gave a GI50 [10] of 0.985 µM, a TGI [10] of 2.19 µM and a GI50 [11] of 0.854 µM. For the same molecule, the TGI [11] was 1.85 µM, the GI50 [12] was 0.922 µM and the TGI [12] was 1.82 µM. It also gave a GI50 [13] of 1.08 µM, a TGI [13] of 2.9 µM and a GI50 [14] of 0.798 µM. The TGI [14] was 1.57 µM, the GI50 [15] was 1.38 µM and the TGI [15] was 3.09 µM. The GI50 [16] was 1.02 µM, the TGI [16] was 2.37 µM and the GI50 [17] was 0.93 µM. For the same molecule, the TGI [17] was 1.75 µM, the GI50 [18] was 0.809 µM and the TGI [18] was 1.99 µM. The GI50 [19] was 0.994 µM, the TGI [19] was 2.9 µM and the GI50 [20] was 0.82 µM. For the same molecule, the TGI [20] was 1.59 µM, the GI50 [21] was 0.726 µM and the TGI [21] was 1.42 µM. For the same molecule, the GI50 [22] was 0.821 µM, the TGI [22] was 1.52 µM and the GI50 [23] was 0.977 µM. For the same molecule, the TGI [23] was 2.39 µM, the GI50 [24] was 1.03 µM and the TGI [24] was 3.82 µM. For the same molecule, the GI50 [25] was 1.4 µM, the TGI [25] was 4.85 µM and the GI50 [26] was 1.1 µM. For the same molecule, the TGI [26] was 2.89 µM, the GI50 [27] was 1.47 µM and the TGI [27] was 5.98 µM. For the same molecule, the GI50 [28] was 1.51 µM, the TGI [28] was 4.83 µM and the GI50 [29] was 1.78 µM. For the same molecule, the TGI [29] was 7.01 µM, the GI50 [30] was 0.913 µM and the TGI [30] was 2.05 µM. It also gave a GI50 [31] of 1.67 µM, a TGI [31] of 5.62 µM and a GI50 [32] of 0.916 µM. For the same molecule, the TGI [32] was 2.42 µM, the GI50 [33] was 1.03 µM and the TGI [33] was 2.22 µM. It also gave a GI50 [34] of 0.794 µM, a TGI [34] of 1.61 µM and a GI50 [35] of 0.831 µM. For the same molecule, the TGI [35] was 1.75 µM, the GI50 [36] was 1.27 µM and the TGI [36] was 4.14 µM. The GI50 [37] was 0.891 µM, the TGI [37] was 2.03 µM and the GI50 [38] was 1.1 µM. The TGI [38] was 2.44 µM, the GI50 [39] was 0.835 µM and the TGI [39] was 1.61 µM. It also gave a GI50 [40] of 1.07 µM, a TGI [40] of 2.68 µM and a GI50 [41] of 1.33 µM. It also gave a TGI [41] of 4.38 µM, a GI50 [42] of 0.907 µM and a TGI [42] of 1.87 µM. For the same molecule, the GI50 [43] was 1.05 µM, the TGI [43] was 2.3 µM and the GI50 [44] was 0.946 µM. The TGI [44] was 2.96 µM, the GI50 [45] was 0.902 µM and the TGI [45] was 1.76 µM. For the same molecule, the GI50 [46] was 1.08 µM, the TGI [46] was 3.24 µM and the GI50 [47] was 0.776 µM. For the same molecule, the TGI [47] was 1.48 µM, the GI50 [48] was 0.833 µM and the TGI [48] was 1.58 µM. It also gave a GI50 [49] of 1.33 µM, a TGI [49] of 3.89 µM and a GI50 [50] of 1.77 µM. The TGI [50] was 6.49 µM, the GI50 [51] was 0.98 µM and the TGI [51] was 2.18 µM. For the same molecule, the GI50 [52] was 0.822 µM, the TGI [52] was 1.74 µM and the GI50 [53] was 0.875 µM. The TGI [53] was 3.17 µM, the GI50 [54] was 0.849 µM and the TGI [54] was 1.72 µM. For the same molecule, the GI50 [55] was 1.29 µM, the TGI [55] was 3.33 µM and the GI50 [56] was 0.807 µM. The TGI [56] was 1.51 µM.

Work on `NS(=O)(=O)c1ccc(-n2nc3c(c2-c2cccs2)Cc2ccccc2-3)cc1` yielded a GI50 [1] of 25.8 µM, a TGI [1] of 58.4 µM and a GI50 [2] of 17.3 µM. The TGI [2] was 36.2 µM, the GI50 [3] was 29.9 µM and the TGI [3] was > 100 µM. For the same molecule, the GI50 [4] was 10.5 µM, the TGI [4] was 22.5 µM and the GI50 [5] was 12.1 µM. For the same molecule, the TGI [5] was 25.1 µM, the GI50 [6] was 17.1 µM and the TGI [6] was 31.9 µM. For the same molecule, the GI50 [7] was 5.56 µM, the TGI [7] was 22.7 µM and the GI50 [8] was 4.24 µM. The TGI [8] was 28.7 µM, the GI50 [10] was 23.2 µM and the TGI [10] was 44.2 µM. It also gave a GI50 [11] of 12.3 µM, a TGI [11] of 25.8 µM and a GI50 [12] of 12.8 µM. It also gave a TGI [12] of 25.4 µM, a GI50 [13] of 11.9 µM and a TGI [13] of 24.8 µM. It also gave a GI50 [14] of 7.67 µM, a TGI [14] of 22.7 µM and a GI50 [15] of 16.5 µM. For the same molecule, the TGI [15] was 32.2 µM, the GI50 [16] was 25.3 µM and the TGI [16] was 69.3 µM. For the same molecule, the GI50 [17] was > 100 µM, the TGI [17] was > 100 µM and the GI50 [18] was 1.43 µM. It also gave a TGI [18] of 3.97 µM, a GI50 [19] of 0.858 µM and a TGI [19] of 3.55 µM. The GI50 [20] was 13.8 µM, the TGI [20] was 31.4 µM and the GI50 [21] was 12.2 µM. The TGI [21] was 24.6 µM, the GI50 [22] was 6.58 µM and the TGI [22] was 19.9 µM. It also gave a GI50 [23] of 12 µM, a TGI [23] of 27.8 µM and a GI50 [24] of 25.5 µM. It also gave a TGI [24] of 83.1 µM, a GI50 [25] of 2.49 µM and a TGI [25] of 15.5 µM. For the same molecule, the GI50 [26] was 20.5 µM, the TGI [26] was 41.6 µM and the GI50 [27] was 20.7 µM. The TGI [27] was 51.1 µM, the GI50 [28] was 37.7 µM and the TGI [28] was > 100 µM. It also gave a GI50 [29] of 4.9 µM, a TGI [29] of 26.2 µM and a GI50 [30] of 22.9 µM. The TGI [30] was 59.4 µM, the GI50 [31] was 10.6 µM and the TGI [31] was 24 µM. For the same molecule, the GI50 [32] was 11.9 µM, the TGI [32] was 29.4 µM and the GI50 [57] was 6.68 µM. The TGI [57] was 26.6 µM, the GI50 [33] was 13.5 µM and the TGI [33] was 32.2 µM. For the same molecule, the GI50 [34] was 17.3 µM, the TGI [34] was 34.1 µM and the GI50 [35] was 12.4 µM. The TGI [35] was 29.8 µM, the GI50 [36] was 12.2 µM and the TGI [36] was 38.7 µM. For the same molecule, the GI50 [37] was > 100 µM, the TGI [37] was > 100 µM and the GI50 [38] was 14.4 µM. The TGI [38] was 44.4 µM, the GI50 [39] was 11.5 µM and the TGI [39] was 23.7 µM. For the same molecule, the GI50 [40] was 16.1 µM, the TGI [40] was 51 µM and the GI50 [41] was 11.7 µM. For the same molecule, the TGI [41] was 24.7 µM, the GI50 [42] was 18.5 µM and the TGI [42] was 48 µM. For the same molecule, the GI50 [43] was 11.8 µM, the TGI [43] was 27.6 µM and the GI50 [44] was 10.1 µM. It also gave a TGI [44] of 22.7 µM, a GI50 [45] of 10.2 µM and a TGI [45] of 23.4 µM. It also gave a GI50 [46] of 12.4 µM, a TGI [46] of 26.1 µM and a GI50 [47] of 12.2 µM. For the same molecule, the TGI [47] was 25 µM, the GI50 [48] was 12.4 µM and the TGI [48] was 26.3 µM. For the same molecule, the GI50 [49] was 12.8 µM, the TGI [49] was 41.1 µM and the GI50 [50] was > 100 µM. The TGI [50] was > 100 µM, the GI50 [52] was 17.4 µM and the TGI [52] was 40.7 µM. For the same molecule, the GI50 [53] was 6.76 µM, the TGI [53] was 20.6 µM and the GI50 [54] was 18.1 µM. For the same molecule, the TGI [54] was 44.8 µM, the GI50 [55] was 27.6 µM and the TGI [55] was 69.6 µM.
